Key:
[1] = test system: MOLP-8 (Plasma Cell Myeloma); assay: combination Emax (second highest fraction inhibited in the dose matrix, 72 h); higher = more inhibition; extreme values may be limits of the assay
How it was run: (§1)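 Cell lines in DMEM/F12 or RPMI with 10% FBS were plated in 1536-well plates, held 24 hours at 37°C, 5% CO2, then given two-drug dose matrices for 72 hours (DMSO typically 0.2%). Viability was read by CellTiter-Glo 2.0 luminescence and scaled as inhibition from 0 (vehicle wells) to 1 (blank wells). Combination Emax is the second-highest inhibition in the matrix; Bliss excess is observed combination effect minus expected EA + EB − EA·EB, EA and EB being single-agent effects.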

[2] = test system: P30-OHK (B-Lymphoblastic Leukemia); assay: as above
How it was run: as §1

[3] = test system: NMC-G1 (Low Grade Glioma); assay: as above
How it was run: as §1

[4] = test system: CL-11 (Colorectal Carcinoma); assay: Bliss excess, mean over the matrix (fraction); higher = more synergy
How it was run: as §1

[5] = test system: TUR (Acute Myeloid Leukemia); assay: as above
How it was run: as §1

[6] = test system: SNU-407 (Colorectal Carcinoma); assay: as above
How it was run: as §1

UACC-257 (Melanoma) = assay: as above
How it was run: as §1

[7] = test system: SAT (Head and Neck Carcinoma); assay: as above
How it was run: as §1

[8] = test system: LCLC-103H (Non-Small Cell Lung Carcinoma); assay: as above
How it was run: as §1

[9] = test system: SKG-IIIa (Cervical Carcinoma); assay: as above
How it was run: as §1

KALS-1 (Glioblastoma) = assay: as above
How it was run: as §1

[10] = test system: SNU-C2B (Colorectal Carcinoma); assay: as above
How it was run: as §1

[11] = test system: NCI-H1341 (Small Cell Lung Carcinoma); assay: as above
How it was run: as §1

[12] = test system: RCC-JW (Kidney Carcinoma); assay: as above
How it was run: as §1

[13] = test system: NCI-H3118 (Head and Neck Carcinoma); assay: as above
How it was run: as §1

[14] = test system: MS-1 (Small Cell Lung Carcinoma); assay: as above
How it was run: as §1

[15] = test system: NCI-H1963 (Small Cell Lung Carcinoma); assay: as above
How it was run: as §1

[16] = test system: NCI-H596 (Other Solid Carcinomas); assay: as above
How it was run: as §1

[17] = test system: NMC-G1 (Low Grade Glioma); assay: as above
How it was run: as §1

[18] = test system: MOLT-13 (T-Lymphoblastic Leukemia); assay: as above
How it was run: as §1
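Throughout, for Bliss excess, mean over the matrix: after 72 h of two-drug dosing.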

| SMILES | combination Emax [1] | combination Emax [2] | combination Emax [3] | Bliss excess [4] | Bliss excess [5] | Bliss excess [6] | Bliss excess (UACC-257 (Melanoma)) | Bliss excess [7] | Bliss excess [8] | Bliss excess [9] | Bliss excess (KALS-1 (Glioblastoma)) | Bliss excess [10] | Bliss excess [11] | Bliss excess [12] | Bliss excess [13] | Bliss excess [14] | Bliss excess [15] | Bliss excess [16] | Bliss excess [17] | Bliss excess [18] |
| --- | --- | --- | --- | --- | --- | --- | --- | --- | --- | --- | --- | --- | --- | --- | --- | --- | --- | --- | --- | --- |
| Cc1cc2ncnn2cc1Nc1ncc2c(n1)n(C1CCOCC1)c(=O)n2C [AZD7648] + CCN(CCO)CCCOc1ccc2c(Nc3cc(CC(=O)Nc4cccc(F)c4)[nH]n3)ncnc2c1 [AZD2811] (first compound max 10 µM, 7x7, partner max 1 µM) | 0.493 | 0.85 | 0.279 | 0.0274 | 0.0523 | 0.023 | 0.0315 | -0.0101 | -0.026 | -0.0161 | 0.0068 | 0.0265 | 0.0568 | -0.011 | 0.0241 | 0.0104 | -0.0146 | -0.0576 | -0.0407 | -0.0152 |
| Cc1cc2ncnn2cc1Nc1ncc2c(n1)n(C1CCOCC1)c(=O)n2C [AZD7648] + CN(C)CCCOc1ccc(-c2ccc3ncc4c(c3c2)n(C2CCOCC2)c(=O)n4C)cn1 [AZD0156] (first compound max 10 µM, 7x7, partner max 1 µM) | 0.514 | 0.376 | 0.207 | 0.0399 | 0.0283 | -0.0385 | -0.02 | 0.0062 | -0.0422 | -0.0195 | 0.015 | -0.0251 | 0.0157 | -0.0158 | 0.0143 | 0.0245 | 0.0494 | -0.002 | -0.0497 | 0.0053 |
| Cc1cc2ncnn2cc1Nc1ncc2c(n1)n(C1CCOCC1)c(=O)n2C [AZD7648] + C[C@@H]1COCCN1C2=NC(=NC(=C2)C3(CC3)[S@](=N)(=O)C)C4=C5C=CNC5=NC=C4 [AZD6738] (first compound max 10 µM, 7x7, partner max 10 µM) | 0.822 | 0.811 | 0.31 | -0.028 | 0.0024 | -0.0207 | 0.0075 | 0.0561 | 0.042 | 0.0412 | 0.0135 | -0.0036 | -0.0087 | 0.0176 | 0.0555 | -0.0266 | 0.0138 | -0.0318 | 0.0004 | -0.0154 |
| Cc1cc2ncnn2cc1Nc1ncc2c(n1)n(C1CCOCC1)c(=O)n2C [AZD7648] + O=C(c1cc(Cc2n[nH]c(=O)c3ccccc23)ccc1F)N1CCN(C(=O)C2CC2)CC1 [Olaparib] (first compound max 10 µM, 7x7, partner max 10 µM) | 0.382 | 0.364 | 0.18 | -0.0464 | 0.0054 | -0.0796 | -0.0422 | -0.039 | -0.0374 | -0.0678 | -0.0225 | -0.0432 | 0.013 | -0.0795 | -0.0223 | -0.0087 | -0.0052 | -0.0384 | -0.0538 | 0.0242 |
| COc1cccc2c1C(=O)c1c(O)c3c(c(O)c1C2=O)C[C@@](O)(C(=O)CO)C[C@@H]3O[C@H]1C[C@H](N)[C@H](O)[C@H](C)O1 [Doxorubicin] + Cc1cc2ncnn2cc1Nc1ncc2c(n1)n(C1CCOCC1)c(=O)n2C [AZD7648] (first compound max 1 µM, 7x7, partner max 10 µM) | 0.915 | 0.975 | 0.405 | 0.0863 | 0.119 | -0.0143 | -0.0059 | 0.0764 | 0.0261 | 0.0086 | 0.0571 | 0.0518 | 0.0628 | 0.0352 | 0.0731 | 0.0686 | 0.1 | -0.006 | -0.0029 | 0.209 |
| COc1cccc(OCCCN)c1-c1cc(Nc2cnc(C#N)cn2)n[nH]1 [Prexasertib] + C=CCn1c(=O)c2cnc(Nc3ccc(N4CCN(C)CC4)cc3)nc2n1-c1cccc(C(C)(C)O)n1 [AZD1775] (first compound max 1 µM, partner max 1 µM) | 0.909 | 0.98 | 0.384 | -0.0496 | 0.105 | 0.0807 | 0.0714 | -0.0318 | 0.0284 | -0.006 | -0.0436 | -0.0336 | 0.13 | 0.169 | 0.0483 | 0.0972 | 0.068 | 0.0087 | -0.0285 | 0.0981 |
| COc1cccc(OCCCN)c1-c1cc(Nc2cnc(C#N)cn2)n[nH]1 [Prexasertib] + CCc1c2c(nc3ccc(O)cc13)-c1cc3c(c(=O)n1C2)COC(=O)[C@]3(O)CC [SN-38] (first compound max 1 µM, 7x7, partner max 0.3 µM) | 0.847 | 0.995 | 0.315 | 0.0172 | 0.0107 | -0.0384 | -0.0664 | -0.007 | 0.081 | 0.0683 | 0.0399 | -0.0388 | -0.0174 | -0.0065 | 0.0162 | -0.0051 | 0.0138 | 0.0625 | -0.105 | -0.0112 |
| COc1cccc(OCCCN)c1-c1cc(Nc2cnc(C#N)cn2)n[nH]1 [Prexasertib] + CN(C)CCCOc1ccc(-c2ccc3ncc4c(c3c2)n(C2CCOCC2)c(=O)n4C)cn1 [AZD0156] (first compound max 1 µM, 7x7, partner max 1 µM) | 0.894 | 0.987 | 0.362 | -0.0548 | 0.013 | -0.0146 | 0.0044 | -0.0158 | -0.0391 | 0.0159 | -0.0669 | -0.0133 | -0.032 | 0.0281 | -0.036 | 0.0205 | -0.0253 | -0.0909 | -0.0134 | 0.0118 |
| COc1cccc(OCCCN)c1-c1cc(Nc2cnc(C#N)cn2)n[nH]1 [Prexasertib] + C[C@@H]1COCCN1C2=NC(=NC(=C2)C3(CC3)[S@](=N)(=O)C)C4=C5C=CNC5=NC=C4 [AZD6738] (first compound max 1 µM, 7x7, partner max 10 µM) | 0.891 | 0.981 | 0.314 | -0.058 | 0.0298 | -0.0094 | 0.0005 | -0.0238 | 0.0242 | 0.0363 | -0.0557 | -0.0274 | -0.0683 | 0.0671 | -0.032 | -0.0136 | -0.0231 | 0.0159 | 0.0155 | 0.002 |
| COc1cccc(OCCCN)c1-c1cc(Nc2cnc(C#N)cn2)n[nH]1 [Prexasertib] + Cc1cc2ncnn2cc1Nc1ncc2c(n1)n(C1CCOCC1)c(=O)n2C [AZD7648] (first compound max 1 µM, 7x7, partner max 10 µM) | 0.897 | 0.984 | 0.327 | -0.0065 | -0.0005 | 0.0252 | -0.0111 | -0.0294 | -0.0791 | 0.0223 | -0.0363 | -0.0356 | 0.0194 | 0.0374 | -0.0501 | -0.0228 | -0.0075 | -0.026 | -0.0374 | 0.004 |
| COc1cccc(OCCCN)c1-c1cc(Nc2cnc(C#N)cn2)n[nH]1 [Prexasertib] + O=C(c1cc(Cc2n[nH]c(=O)c3ccccc23)ccc1F)N1CCN(C(=O)C2CC2)CC1 [Olaparib] (first compound max 1 µM, 7x7, partner max 10 µM) | 0.882 | 0.991 | 0.371 | -0.0583 | -0.0181 | -0.0041 | -0.0242 | -0.0473 | -0.0572 | -0.0274 | -0.115 | -0.0414 | -0.0022 | -0.0896 | -0.0501 | -0.0481 | -0.0327 | 0.0098 | -0.0325 | 0.0013 |
| COc1cc2c(cc1OCCCCCOc1cc3c(cc1OC)C(=O)N1C=C(C)C[C@H]1C=N3)N=C[C@@H]1CC(C)=CN1C2=O [SG3199] + O=C(c1cc(Cc2n[nH]c(=O)c3ccccc23)ccc1F)N1CCN(C(=O)C2CC2)CC1 [Olaparib] (first compound max 0.001 µM, 7x7, partner max 10 µM) | 0.233 | 0.31 | 0.183 | -0.016 | 0.0081 | -0.0378 | -0.0419 | -0.0203 | -0.0506 | -0.0391 | -0.0155 | -0.0374 | -0.0059 | -0.0231 | -0.0471 | 0.0418 | 0.025 | -0.0681 | -0.0625 | 0.018 |
| CCc1c2c(nc3ccc(O)cc13)-c1cc3c(c(=O)n1C2)COC(=O)[C@]3(O)CC [SN-38] + CN(C)CCCOc1ccc(-c2ccc3ncc4c(c3c2)n(C2CCOCC2)c(=O)n4C)cn1 [AZD0156] (first compound max 0.3 µM, 7x7, partner max 1 µM) | 0.78 | 0.973 | 0.24 | 0.117 | 0.0516 | -0.0188 | 0.0023 | 0.0361 | 0.0263 | 0.0352 | 0.0189 | 0.0089 | -0.0226 | 0.05 | 0.0864 | -0.0384 | 0.0847 | 0.027 | -0.0202 | 0.085 |

From the supplement of paper PMC11061612
